These are literature values, as cited in PMC13005129 (Biochemistry, 2025).

For data set [1], the system named is Gq/11. The note with it: cultured cells.
Data set [2] relates to M3Rs expressed by immortalized human airway smooth muscle (ASM) cells.

Starred links: 1 amine or outer side, 2 acyl side, 3 side chain; linkers in the order of their positions; H or OH if unused. Positions of bridges follow the written chain, without caps; N, C: chain ends. Non-standard residues stand in square brackets, D forms with d. Residues, ends and D or L forms follow the SMILES beside them. *: point of attachment. Leu(3R-OH,Nα-propionyl) = CCC(=O)N[C@H](C(=O)*)[C@H](O)C(C)C; X1 = CC(C)[C@@H](O[*:3])[C@H](N[*:1])C(=O)[*:2]; NMeT = CN[C@H](C(=O)O)[C@@H](C)O; dPhLac = O=C(O)[C@H](O)Cc1ccccc1; NMeA = CN[C@@H](C)C(=O)O; NMeDha = C=C(NC)C(=O)O

As for `C=C1C(=O)N[C@@H](C)C(=O)N(C)[C@@H](C)C(=O)N[C@@H]([C@H](OC(=O)[C@@H](NC(=O)CC)[C@H](O)C(C)C)C(C)C)C(=O)N(C)[C@@H]([C@@H](C)OC)C(=O)O[C@H](C(C)C)[C@H](NC(C)=O)C(=O)O[C@H](Cc2ccccc2)C(=O)N1C` [FR900359] (Ac-[X1][dPhLac][NMeDha]A[NMeA][X1](Leu(3R-OH,Nα-propionyl))[NMeT](Me); ester 1-C), the “block of M3R-mediated increases in [Ca2+]i” value in data set [1] was “can be effectively blocked”.

In the case of `CC(=O)OC(C)C[N+](C)(C)C` (centres unmarked) [methacholine], the “change in [Ca2+]i on M3R activation” value in data set [2] is “leads to an increase in [Ca^2+]i”.
